{"source": "patent US4386103A", "about": "“Dichloroamino acid derivatives useful as potent germicidal and fungicidal agents” (Merck & Co., Inc., priority 1981, dated 1983)", "key": {"pseudomonas organisms": {"tested_on": "pseudomonas organisms", "settings": "cited from earlier work"}, "[1]": {"tested_on": "Gram-positive and Gram-negative organisms", "settings": "cited from earlier work"}, "[2]": {"assay": "Stability of chloroamino acids in pH 4 acetate buffer at 34° C.", "assay_type": "physicochemical", "settings": "for half-life: read-out: Stability (t1/2) (converted)", "text": "The effect of this distance on stability in aqueous medium is illustrated in the following table."}, "Candida albican": {"tested_on": "Candida albican", "assay": "Contact fungicidal screen, Candida albican", "assay_type": "cell-based", "settings": "0.1M NaOAc pH 4.6", "protocol": "(§1) The organisms used in the Contact Fungicidal Screen are a dermatophyte, trychophyton mentagrophytes, frequently associated with athlete's foot; a yeast, Candida albican, causative agent of thrush and vaginitis; a phycomycete, Rhizopus oryzae, commonly known as black bread mold; an ascomycete, Aspergillus fumagatis, found in chicken droppings and causing lung infections; and another dermatophyte, Microsporum canis, which causes ringworm. These organisms are maintained as stock cultures at 4° C. on agar slants of the following composition: dextrose 2%, Neopeptone (Difco) 1%, agar 2%. Fluid medium of the same nutrient composition (without agar) was used to test the viability of the organisms after exposure to the fungicide. This medium is also known as Sabouraud's medium.\nThe Candida albican is grown in Sabouraud's liquid medium at 25°-30° C. for three days. At the end of the incubation period the cell suspension is centrifuged at 200 G and washed with sterile physiological saline (0.85% NaCl). The density of the cell suspension is determined by counting in a hemacytometer. The suspension is stored a 4° C. until it is used, at which time it is diluted with sterile physiological saline to a density of 5×10^6 cells per ml.\n(§2) The compounds are weighed into heat sterilized 100 ml volumetric flasks and immediately before screening dissolved in 0.1 M NaOAc pH 4.6 buffer (test solutions).\n(§3) The Aspergillus, Candida, Microsporum and Rhizopus species are screened in a slightly different manner. Basically, the procedure for the Contact Germicidal Efficiency Screen is utilized. After the test solutions are made up, 5 ml aliquots are pipetted into heat sterilized 25 ml glass stoppered erlenmeyer flasks. The screen is initiated when 0.5 ml of the 5×10^6 cell (spore) per ml suspension is added to the flask containing 5 ml of the test solution. At intervals of 0.5, 2.5, 5.0, 10.0 and 15.0 minutes, a 4 mm loopful of the inoculated test solution is subcultured into 7 mL of sterile fluid Sabouraud's medium and mixed on a vortex, the high dilution serving to stop the action of the compound. The subculture tubes are incubated at 25°-30° C. for ten days with daily observation for mycelial growth. The earliest subculture time at which no growth is present is considered the endpoint and is recorded as the sterilization time.\n(§4) To insure the viability of the culture, a 0.5 ml aliquot of the 5×10^6 cells (spores) per ml suspension is transferred to 5 ml of the pH 4.6 buffer. A loopful of the inoculated buffer is then subcultured to 7 ml of fluid Sabouraud's medium and incubated at 25°-30° C. for ten days. To insure that the dilution of the test solution into the subculture medium does stop the action, a loopful of the test solution and a loopful of the inoculated buffer are transferred into the same subculture tube. This tube is also incubated at 25°-30° C. for ten days."}, "Rhizopus oryzae": {"tested_on": "Rhizopus oryzae", "assay": "Contact fungicidal screen, Rhizopus oryzae", "assay_type": "cell-based", "settings": "0.1M NaOAc pH 4.6", "protocol": "as §1\n[…]. The mycelial mat is removed from the surface of the agar using a sterile spatula. It is transferred to a heat sterilized glass tissue grinder and macerated with 25 ml of sterile physiological saline. The suspension is then filtered through sterile glass wool. The density of the sporangia spore suspension is determined by counting in a hemacytometer. The suspension is stored at 4° C. until it was used, at which time it was diluted with sterile physiological saline to a density of 5×10^6 spores per ml.\nas §2, §3, §4"}, "Aspergillus fumigatus": {"tested_on": "Aspergillus fumigatus", "assay": "Contact fungicidal screen, Aspergillus fumigatus", "assay_type": "cell-based", "settings": "0.1M NaOAc pH 4.6", "protocol": "(§5) The organisms used in the Contact Fungicidal Screen are a dermatophyte, trychophyton mentagrophytes, frequently associated with athlete's foot; a yeast, Candida albican, causative agent of thrush and vaginitis; a phycomycete, Rhizopus oryzae, commonly known as black bread mold; an ascomycete, Aspergillus fumagatis, found in chicken droppings and causing lung infections; and another dermatophyte, Microsporum canis, which causes ringworm. These organisms are maintained as stock cultures at 4° C. on agar […] of the following composition: dextrose 2%, Neopeptone (Difco) 1%, agar 2%. Fluid medium of the same nutrient composition (without agar) was used to test the viability of the organisms after exposure to the fungicide. This medium is also known as Sabouraud's medium. Sabouraud's agar plate cultures of Aspergillus fumigatus, Microsporum canis, and a different culture of Trychophyton mentagrophytes are prepared by planting an inoculum at the center of an agar plate and incubating at 25°-30° C. for seven to ten days. The mycelial mats are removed from the surface of the agar and prepared in the same manner as the Rhizopus culture. The compounds are weighed into heat sterilized 100 ml volumetric flasks and immediately before screening dissolved in 0.1 M NaOAc pH 4.6 buffer (test solutions). The Aspergillus, Candida, Microsporum and Rhizopus species are screened in a slightly different manner. Basically, the procedure for the Contact Germicidal Efficiency Screen is utilized. After the test solutions are made up, 5 ml aliquots are pipetted into heat sterilized 25 ml glass stoppered erlenmeyer flasks. The screen is initiated when 0.5 ml of the 5×10^6 cell (spore) per ml suspension is added to the flask containing 5 ml of the test solution. […] The subculture tubes are incubated at 25°-30° C. for ten days with daily observation for mycelial growth. The earliest subculture time at which no growth is present is considered the endpoint and is recorded as the sterilization time. To insure the viability of the culture, a 0.5 ml aliquot of the 5×10^6 cells (spores) per ml suspension is transferred to 5 ml of the pH 4.6 buffer. A loopful of the inoculated buffer is then subcultured to 7 ml of fluid Sabouraud's medium and incubated at 25°-30° C. for ten days. To insure that the dilution of the test solution into the subculture medium does stop the action, a loopful of the test solution and a loopful of the inoculated buffer are transferred into the same subculture tube. This tube is also incubated at 25°-30° C. for ten days."}, "Microsporum canis": {"tested_on": "Microsporum canis", "assay": "Contact fungicidal screen, Microsporum canis", "assay_type": "cell-based", "settings": "0.1M NaOAc pH 4.6", "protocol": "as §5"}, "Gram-negative organisms": {"tested_on": "Gram-negative organisms", "settings": "cited from earlier work"}, "[3]": {"settings": "animal tests; cited from earlier work"}}, "data": [{"smiles": "[H]/N=C(\\N/C(=N/[H])NCCCCCCNC(=N)NC(=N)Nc1ccc(Cl)cc1)Nc1ccc(Cl)cc1", "note": "[Chlorhexidine]", "values": [{"measurement": "activity against pseudomonas organisms", "setting": "pseudomonas organisms", "value": "not effective against pseudomonas organisms"}, {"measurement": "activity against Gram-positive and Gram-negative organisms", "setting": "[1]", "value": "generally effective against Gram-positive and Gram-negative oganisms"}]}, {"smiles": "CC(C)(COC(=O)CCC(=O)O)N(Cl)Cl", "note": "[drawing 17]", "values": [{"measurement": "half-life", "setting": "[2]", "value": 300, "unit": "days"}]}, {"smiles": "CC(C)(CCC(=O)O)N(Cl)Cl", "note": "[Z = CH2 CH2]", "values": [{"measurement": "half-life", "setting": "[2]", "value": 57, "unit": "days"}]}, {"smiles": "CC(C)(CCCCC(=O)O)N(Cl)Cl", "note": "[(VI), 6-Dichloroamino-6-methyl-heptanoic acid]", "values": [{"measurement": "Sterilization Time", "setting": "Candida albican; 10 PPM", "value": 15, "unit": "min"}, {"measurement": "Sterilization Time", "setting": "Candida albican; 100 PPM", "value": 2.5, "unit": "min"}, {"measurement": "Sterilization Time", "setting": "Candida albican; 1000 PPM", "value": 0.5, "unit": "min"}, {"measurement": "Sterilization Time", "setting": "Rhizopus oryzae; 10 PPM", "value": 15, "unit": "min"}, {"measurement": "Sterilization Time", "setting": "Rhizopus oryzae; 100 PPM", "value": 15, "unit": "min"}, {"measurement": "Sterilization Time", "setting": "Rhizopus oryzae; 1000 PPM", "value": 15, "unit": "min"}, {"measurement": "Sterilization Time", "setting": "Aspergillus fumigatus; 10 PPM", "value": 15, "unit": "min"}, {"measurement": "Sterilization Time", "setting": "Aspergillus fumigatus; 100 PPM", "value": 15, "unit": "min"}, {"measurement": "Sterilization Time", "setting": "Aspergillus fumigatus; 1000 PPM", "value": 5.0, "unit": "min"}, {"measurement": "Sterilization Time", "setting": "Microsporum canis; 10 PPM", "value": 10.0, "unit": "min"}, {"measurement": "Sterilization Time", "setting": "Microsporum canis; 100 PPM", "value": 2.5, "unit": "min"}, {"measurement": "Sterilization Time", "setting": "Microsporum canis; 1000 PPM", "value": 0.5, "unit": "min"}]}, {"smiles": "CC(C)(C(=O)O)N(Cl)Cl", "note": "[Z = nothing]", "values": [{"measurement": "Stability (in words)", "setting": "[2]", "value": "violent decomposition"}]}, {"smiles": "CC(C)(CC(=O)O)N(Cl)Cl", "note": "[Z = CH2]", "values": [{"measurement": "half-life", "setting": "[2]", "value": 1.21, "unit": "days"}]}, {"smiles": "Oc1c(Cl)cc(Cl)c(Cl)c1Cc1c(O)c(Cl)cc(Cl)c1Cl", "note": "[Hexachlorophene]", "values": [{"measurement": "activity against Gram-negative organisms", "setting": "Gram-negative organisms", "value": "ineffective against Gram-negative organisms"}, {"measurement": "neurotoxicity", "setting": "[3]", "value": "caused neurotoxicity"}]}]}
